Test results: patent publication US9686988B2, “Pesticidal compounds based on arylthiosulfonamide derivatives” (Syngenta Participations AG, priority 2012, dated 2017)

Tests used:
Format in all cases: in vivo
Plutella xylostella = Plutella xylostella (diamond back moth), L2 larvae on artificial diet; conditions: 120 h, application rate of 200 ppm, mortality and growth inhibition 5 days after infestation
Protocol: Plutella xylostella (Diamond Back Moth):
24-well microtiter plates with artificial diet were treated with aqueous test solutions prepared from 10′000 ppm DMSO stock solutions by pipetting. After drying, the plates were infested with L2 larvae (10 to 15 per well). The samples were assessed for mortality and growth inhibition 5 days after infestation. Control of Plutella xyllostella by a test sample is noted when at least one of mortality and growth inhibition is better than the untreated sample.

Spodoptera littoralis = Spodoptera littoralis (Egyptian cotton leaf worm), cotton leaf disc spray test; conditions: foliar, 72 h, application rate of 200 ppm, mortality, anti-feedant effect, growth inhibition 3 days after infestation, L1 larvae
Protocol: Spodoptera littoralis (Egyptian Cotton Leaf Worm)
Cotton leaf discs were placed on agar in 24-well microtiter plates and sprayed with aqueous test solutions prepared from 10′000 ppm DMSO stock solutions. After drying the leaf discs were infested with five L1 larvae. The samples were assessed for mortality, anti-feedant effect, and growth inhibition 3 days after infestation. Control of Spodoptera littoralis by a test sample is noted when at least one of mortality, anti-feedant effect, and growth inhibition is better than the untreated sample.

Tetranychus urticae = Tetranychus urticae (two-spotted spider mite), bean leaf disc spray test; conditions: foliar, 192 h, application rate of 200 ppm, mortality (mobile stages) 8 days after infestation, mixed ages
Protocol: Tetranychus urticae (Two-Spotted Spider Mite):
Bean leaf discs on agar in 24-well microtiter plates were sprayed with aqueous test solutions prepared from 10′000 ppm DMSO stock solutions. After drying the leaf discs were infested with a mite population of mixed ages. The samples were assessed for mortality (mobile stages) 8 days after infestation.

Thrips tabaci = Thrips tabaci (onion thrips), sunflower leaf disc spray test; conditions: foliar, 144 h, application rate of 200 ppm, mortality 6 days after infestation, mixed ages
Protocol: Thrips tabaci (Onion Thrips):
Sunflower leaf discs were placed on agar in 24-well microtiter plates and sprayed with aqueous test solutions prepared from 10′000 ppm DMSO stock solutions. After drying the leaf discs were infested with a thrips population of mixed ages. The samples were assessed for mortality 6 days after infestation.

Heliothis virescens = Heliothis virescens (tobacco budworm), eggs on artificial diet; conditions: 120 h, application rate of 200 ppm, egg mortality, larval mortality, growth inhibition 5 days after infestation
Protocol: Heliothis virescens (Tobacco Budworm):
Eggs (0-24 h old) were placed in 24-well microtiter plates on artificial diet and treated with aqueous test solutions prepared from 10′000 ppm DMSO stock solutions by pipetting. The samples were assessed for egg mortality, larval mortality and growth inhibition 5 days after infestation. Control of Heliothis virescens by a test sample is noted when at least one of egg mortality, larval mortality and growth inhibition is better than the untreated sample.

Diabrotica balteata [1] = test: Diabrotica balteata (corn rootworm), L2 larvae on artificial diet; conditions: 120 h, application rate of 200 ppm, mortality and growth inhibition 5 days after infestation
Protocol: Diabrotica balteata (Corn Rootworm):
24-well microtiter plates with artificial diet were treated with aqueous test solutions prepared from 10′000 ppm DMSO stock solutions by pipetting. After drying, the plates were infested with L2 larvae (6 to 10 per well). The samples were assessed for mortality and growth inhibition 5 days after infestation. Control of Diabrotica balteata by a test sample is noted when at least one of mortality and growth inhibition is better than the untreated sample.

Myzus persicae = Myzus persicae (green peach aphid), sunflower leaf disc spray test; conditions: foliar, 144 h, read-out: mortality of Myzus persicae
Protocol: Myzus persicae (Green Peach Aphid):
Sunflower leaf discs were placed on agar in a 24-well microtiter plate and sprayed with aqueous test solutions prepared from 10′000 ppm DMSO stock solutions. After drying, the leaf discs were infested with an aphid population of mixed ages. The samples were assessed for mortality 6 days after infestation.

Diabrotica balteata [2] = test: Diabrotica balteata (corn rootworm), sprayed maize sprouts; conditions: 96 h, application rate of 200 ppm, 4 days after infestation, L2 larvae
Protocol: Diabrotica balteata, (Corn Rootworm)
Maize sprouts, placed on an agar layer in 24-well microtiter plates were treated with aqueous test solutions prepared from 10′000 ppm DMSO stock solutions by spraying. After drying, the plates were infested with L2 larvae (6 to 10 per well). The samples were assessed for mortality 4 days after infestation.

O=S(=O)(CSc1ccc(C2=NO[C@@](c3cc(Cl)cc(Cl)c3)(C(F)(F)F)C2)cc1Br)NC1CC1 [Compound B3, 1-[2-bromo-4-[(5S)-5-(3,5-dichlorophenyl)-5-(trifluoromethyl)-4H-isoxazol-3-yl]phenyl]sulfanyl-N-cyclopropyl-methanesulfonamide]
≥ 80%: pest or weed control at 200 ppm (Plutella xylostella) | pest or weed control at 200 ppm (Spodoptera littoralis) | pest or weed control at 200 ppm (Tetranychus urticae) | pest or weed control at 200 ppm (Thrips tabaci) | pest or weed control at 200 ppm (Heliothis virescens) | pest or weed control at 200 ppm (Diabrotica balteata [1])

NS(=O)(=O)CSc1ccc(C2=NOC(c3cc(Cl)cc(Cl)c3)(C(F)(F)F)C2)cc1Br (stereo not shown) [Compound A1, [2-bromo-4-[5-(3,5-dichlorophenyl)-5-(trifluoromethyl)-4H-isoxazol-3-yl]phenyl]sulfanylmethanesulfonamide]
≥ 80%: pest or weed control at 200 ppm (Plutella xylostella) | pest or weed control at 200 ppm (Spodoptera littoralis) | pest or weed control at 200 ppm (Tetranychus urticae) | pest or weed control at 200 ppm (Thrips tabaci) | pest or weed control at 200 ppm (Heliothis virescens) | pest or weed control at 200 ppm (Diabrotica balteata [1])

O=S(=O)(CS(=O)(=O)c1ccc(C2=NOC(c3cc(Cl)cc(Cl)c3)(C(F)(F)F)C2)cc1Br)NC1CC1 (stereo not shown) [Compound B6, 1-[2-bromo-4-[5-(3,5-dichlorophenyl)-5-(trifluoromethyl)-4H-isoxazol-3-yl]phenyl]sulfonyl-N-cyclopropyl-methanesulfonamide]
≥ 80%: pest or weed control at 200 ppm (Plutella xylostella) | pest or weed control at 200 ppm (Spodoptera littoralis) | pest or weed control at 200 ppm (Tetranychus urticae) | pest or weed control at 200 ppm (Thrips tabaci) | pest or weed control at 200 ppm (Heliothis virescens) | pest or weed control at 200 ppm (Diabrotica balteata [1])

CCNS(=O)(=O)CSc1ccc(C2=NO[C@@](c3cc(Cl)cc(Cl)c3)(C(F)(F)F)C2)cc1Br [Compound B1, 1-[2-bromo-4-[(5S)-5-(3,5-dichlorophenyl)-5-(trifluoromethyl)-4H-isoxazol-3-yl]phenyl]sulfanyl-N-ethyl-methanesulfonamide]
≥ 80%: pest or weed control at 200 ppm (Plutella xylostella) | pest or weed control at 200 ppm (Spodoptera littoralis) | pest or weed control at 200 ppm (Tetranychus urticae) | pest or weed control at 200 ppm (Thrips tabaci) | mortality at 200 ppm (Myzus persicae) | pest or weed control at 200 ppm (Heliothis virescens) | pest or weed control at 200 ppm (Diabrotica balteata [1])

NS(=O)(=O)CS(=O)(=O)c1ccc(C2=NOC(c3cc(Cl)cc(Cl)c3)(C(F)(F)F)C2)cc1Br (stereo not shown) [Compound A4, [2-bromo-4-[5-(3,5-dichlorophenyl)-5-(trifluoromethyl)-4H-isoxazol-3-yl]phenyl]sulfonylmethanesulfonamide]
≥ 80%: pest or weed control at 200 ppm (Plutella xylostella) | pest or weed control at 200 ppm (Spodoptera littoralis) | pest or weed control at 200 ppm (Tetranychus urticae) | pest or weed control at 200 ppm (Heliothis virescens) | pest or weed control at 200 ppm (Diabrotica balteata [1])

O=S(=O)(CSc1ccc(C2=NO[C@@](c3cc(Cl)cc(Cl)c3)(C(F)(F)F)C2)cc1Br)NCC(F)(F)F [Compound B2, 1-[2-bromo-4-[(5S)-5-(3,5-dichlorophenyl)-5-(trifluoromethyl)-4H-isoxazol-3-yl]phenyl]sulfanyl-N-(2,2,2-trifluoroethyl)-methanesulfonamide]
≥ 80%: pest or weed control at 200 ppm (Plutella xylostella) | pest or weed control at 200 ppm (Spodoptera littoralis) | pest or weed control at 200 ppm (Tetranychus urticae) | pest or weed control at 200 ppm (Thrips tabaci) | pest or weed control at 200 ppm (Heliothis virescens) | pest or weed control at 200 ppm (Diabrotica balteata [1])

CCNS(=O)(=O)CSc1ccc(C2=NOC(c3cc(Cl)cc(Cl)c3)(C(F)(F)F)C2)cc1Br (stereo not shown) [Compound A3, 1-[2-bromo-4-[5-(3,5-dichlorophenyl)-5-(trifluoromethyl)-4H-isoxazol-3-yl]phenyl]sulfanyl-N-ethyl-methanesulfonamide]
≥ 80%: pest or weed control at 200 ppm (Plutella xylostella) | pest or weed control at 200 ppm (Spodoptera littoralis) | pest or weed control at 200 ppm (Tetranychus urticae) | pest or weed control at 200 ppm (Thrips tabaci) | mortality at 200 ppm (Myzus persicae) | pest or weed control at 200 ppm (Heliothis virescens) | pest or weed control at 200 ppm (Diabrotica balteata [1])

CCN(CC)S(=O)(=O)CSc1ccc(C2=CSC(c3cc(Cl)cc(Cl)c3)(C(F)(F)F)C2)cc1Br (stereo not shown) [Compound D1, 1-[2-bromo-4-[2-(3,5-dichlorophenyl)-2-(trifluoromethyl)-3H-thiophen-4-yl]phenyl]sulfanyl-N,N-diethyl-methanesulfonamide]
≥ 80%: pest or weed control at 200 ppm (Tetranychus urticae)

CCNS(=O)(=O)CSc1ccc(C2=CSC(c3cc(Cl)cc(Cl)c3)(C(F)(F)F)C2)cc1Br (stereo not shown) [Compound D2, 1-[2-bromo-4-[2-(3,5-dichlorophenyl)-2-(trifluoromethyl)-3H-thiophen-4-yl]phenyl]sulfanyl-N-ethyl-methanesulfonamide]
≥ 80%: pest or weed control at 200 ppm (Plutella xylostella) | pest or weed control at 200 ppm (Spodoptera littoralis) | pest or weed control at 200 ppm (Heliothis virescens) | mortality at 200 ppm (Diabrotica balteata [2])

CCN(CC)S(=O)(=O)CSc1ccc(C2=NOC(c3cc(Cl)cc(Cl)c3)(C(F)(F)F)C2)cc1Br (stereo not shown) [Compound A2, 1-[2-bromo-4-[5-(3,5-dichlorophenyl)-5-(trifluoromethyl)-4H-isoxazol-3-yl]phenyl]sulfanyl-N,N-diethyl-methanesulfonamide]
≥ 80%: pest or weed control at 200 ppm (Plutella xylostella) | pest or weed control at 200 ppm (Spodoptera littoralis) | pest or weed control at 200 ppm (Tetranychus urticae) | pest or weed control at 200 ppm (Thrips tabaci) | pest or weed control at 200 ppm (Heliothis virescens) | pest or weed control at 200 ppm (Diabrotica balteata [1])

C#CCNS(=O)(=O)CSc1ccc(C2=NO[C@@](c3cc(Cl)cc(Cl)c3)(C(F)(F)F)C2)cc1Br [Compound B5, 1-[2-bromo-4-[(5S)-5-(3,5-dichlorophenyl)-5-(trifluoromethyl)-4H-isoxazol-3-yl]phenyl]sulfanyl-N-propargyl-methanesulfonamide]
≥ 80%: pest or weed control at 200 ppm (Plutella xylostella) | pest or weed control at 200 ppm (Spodoptera littoralis) | pest or weed control at 200 ppm (Tetranychus urticae) | pest or weed control at 200 ppm (Thrips tabaci) | pest or weed control at 200 ppm (Heliothis virescens) | pest or weed control at 200 ppm (Diabrotica balteata [1])

CC(C)NS(=O)(=O)CSc1ccc(C2=NO[C@@](c3cc(Cl)cc(Cl)c3)(C(F)(F)F)C2)cc1Br [Compound B4, 1-[2-bromo-4-[(5S)-5-(3,5-dichlorophenyl)-5-(trifluoromethyl)-4H-isoxazol-3-yl]phenyl]sulfanyl-N-isopropyl-methanesulfonamide]
≥ 80%: pest or weed control at 200 ppm (Plutella xylostella) | pest or weed control at 200 ppm (Spodoptera littoralis) | pest or weed control at 200 ppm (Tetranychus urticae) | pest or weed control at 200 ppm (Thrips tabaci) | mortality at 200 ppm (Myzus persicae) | pest or weed control at 200 ppm (Heliothis virescens) | pest or weed control at 200 ppm (Diabrotica balteata [1])
